Reference: PubChem BioAssay AID248 (DTP/NCI, 2004)
Several values for one entry are separate records, joined by “and”; a condition that tells them apart may be missing. Equal entries are not always repeated. Toxic doses and inconclusive results are not listed. Rule as the data show it: active = T/C of 150% or more; inactive = T/C below 125%.

Tested on: L1210 leukemia ip in BDF1 mice, survival T/C
Assay: NCI In Vivo Anticancer Drug Screen. Data for tumor model L1210 Leukemia (intraperitoneal) in B6D2F1 (BDF1) mice
Settings: endpoint: mean survival time, higher = longer survival
How it was run: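 Value reflects the ratio of survival in compound-treated mice to survival in vehicle-treated controls, with both groups carrying the same transplanted tumor.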

[1] = dose: 100.0 mg/kg/injection, schedule: Q01DX009 (ip), vehicle: saline
[2] = dose: 100.0 mg/kg/injection, schedule: Q04DX002 (ip), vehicle: saline
[3] = dose: 200.0 mg/kg/injection, schedule: Q01DX009 (ip), vehicle: saline
[4] = dose: 200.0 mg/kg/injection, schedule: Q04DX002 (ip), vehicle: saline
[5] = dose: 400.0 mg/kg/injection, schedule: Q01DX009 (ip), vehicle: saline
[6] = dose: 400.0 mg/kg/injection, schedule: Q04DX002 (ip), vehicle: saline
[7] = dose: 100.0 mg/kg/injection, schedule: Q01DX001 (ip), vehicle: Klucel (hydroxypropylcellulose) (HPC)
[8] = dose: 400.0 mg/kg/injection, schedule: Q01DX001 (ip), vehicle: Klucel (hydroxypropylcellulose) (HPC)
[9] = dose: 100.0 mg/kg/injection, schedule: Q01DX009 (ip), vehicle: saline with Tween-80
[10] = dose: 200.0 mg/kg/injection, schedule: Q01DX009 (ip), vehicle: saline with Tween-80
[11] = dose: 400.0 mg/kg/injection, schedule: Q01DX009 (ip), vehicle: saline with Tween-80
[12] = dose: 200.0 mg/kg/injection, schedule: Q01DX001 (ip), vehicle: Klucel (hydroxypropylcellulose) (HPC)
[13] = dose: 100.0 mg/kg/injection, schedule: Q04DX003 (ip), vehicle: Klucel (hydroxypropylcellulose) (HPC)
[14] = dose: 200.0 mg/kg/injection, schedule: Q04DX003 (ip), vehicle: Klucel (hydroxypropylcellulose) (HPC)
[15] = dose: 400.0 mg/kg/injection, schedule: Q04DX003 (ip), vehicle: Klucel (hydroxypropylcellulose) (HPC)
[16] = dose: 50.0 mg/kg/injection, schedule: Q01DX001 (ip), vehicle: carboxymethylcellulose (CMC)
[17] = dose: 100.0 mg/kg/injection, schedule: Q01DX001 (ip), vehicle: carboxymethylcellulose (CMC)
[18] = dose: 200.0 mg/kg/injection, schedule: Q01DX001 (ip), vehicle: carboxymethylcellulose (CMC)
[19] = dose: 100.0 mg/kg/injection, schedule: Q01DX001 (ip), vehicle: saline
[20] = dose: 200.0 mg/kg/injection, schedule: Q01DX001 (ip), vehicle: saline
[21] = dose: 400.0 mg/kg/injection, schedule: Q01DX001 (ip), vehicle: saline
[22] = dose: 100.0 mg/kg/injection, schedule: Q04DX003 (ip), vehicle: saline with Tween-80
[23] = dose: 200.0 mg/kg/injection, schedule: Q04DX003 (ip), vehicle: saline with Tween-80
[24] = dose: 400.0 mg/kg/injection, schedule: Q04DX003 (ip), vehicle: saline with Tween-80
[25] = dose: 400.0 mg/kg/injection, schedule: Q01DX001 (ip), vehicle: carboxymethylcellulose (CMC)

Measured: T/C

Nc1ccncn1
inactive: dose: 100.0 mg/kg/injection, schedule: Q01DX005 (ip), vehicle: saline 94 % of control | [1] 99 % of control | [2] 96 % of control | dose: 200.0 mg/kg/injection, schedule: Q01DX005 (ip), vehicle: saline 97 % of control | [3] 96 % of control | [4] 96 % of control | dose: 400.0 mg/kg/injection, schedule: Q01DX005 (ip), vehicle: saline 105 % of control | [5] 96 % of control | [6] 100 % of control

Cc1ccc(NC(=O)COc2ccc([N+](=O)[O-])cc2Cl)cc1S(=O)(=O)F
inactive: dose: 87.5 mg/kg/injection, schedule: Q04DX003 (ip), vehicle: gum acacia 97 % of control | dose: 175.0 mg/kg/injection, schedule: Q04DX003 (ip), vehicle: gum acacia 100 % of control | dose: 350.0 mg/kg/injection, schedule: Q04DX003 (ip), vehicle: gum acacia 94 % of control

Nc1cc(=S)c2[nH]cnc2[nH]1
inactive: [7] 92 % of control | [8] 88 % of control

O=C(Nc1cc([N+](=O)[O-])ccc1Cl)SCc1ccccc1
inactive: [9] 102 % of control | [10] 98 % of control | [11] 102 % of control

O=c1[nH]c(SCc2cccc([N+](=O)[O-])c2)nc2nc[nH]c12
inactive: dose: 50.0 mg/kg/injection, schedule: Q01DX001 (ip), vehicle: Klucel (hydroxypropylcellulose) (HPC) 96 % of control | [7] 100 % of control | [12] 107 % of control

CC(=O)OC1CCC2(C)C(CCC3(C)C2CC=C2C4C(C)C(C)CCC4(C)CCC23C)C1(C)C (stereo unspecified)
inactive: [13] 91 % of control | [14] 88 % of control | [15] 90 % of control

CC1(c2ccccc2)CCC(NN=C(N)N)=NC1 (stereo unspecified)
inactive: dose: 15.0 mg/kg/injection, schedule: Q01DX Z (ip), vehicle: methylcellulose (MC) 95 % of control | dose: 30.0 mg/kg/injection, schedule: Q01DX Z (oral), vehicle: methylcellulose (MC) 97 % of control | dose: 60.0 mg/kg/injection, schedule: Q01DX Z (ip), vehicle: methylcellulose (MC) 101 % of control | dose: 60.0 mg/kg/injection, schedule: Q01DX Z (oral), vehicle: methylcellulose (MC) 91 % of control | dose: 120.0 mg/kg/injection, schedule: Q01DX Z (ip), vehicle: methylcellulose (MC) 95 % of control | dose: 120.0 mg/kg/injection, schedule: Q01DX Z (oral), vehicle: methylcellulose (MC) 101 % of control | dose: 240.0 mg/kg/injection, schedule: Q01DX Z (ip), vehicle: methylcellulose (MC) 93 % of control | dose: 240.0 mg/kg/injection, schedule: Q01DX Z (oral), vehicle: methylcellulose (MC) 93 % of control | dose: 375.0 mg/kg/injection, schedule: Q01DX Z (oral), vehicle: methylcellulose (MC) 89 % of control | dose: 420.0 mg/kg/injection, schedule: Q01DX Z (ip), vehicle: methylcellulose (MC) 93 % of control | dose: 500.0 mg/kg/injection, schedule: Q01DX Z (oral), vehicle: methylcellulose (MC) 86 % of control | dose: 600.0 mg/kg/injection, schedule: Q01DX Z (ip), vehicle: methylcellulose (MC) 92 % of control | dose: 625.0 mg/kg/injection, schedule: Q01DX Z (oral), vehicle: methylcellulose (MC) 93 % of control

NC(=O)C1(Nc2ccc(-c3ccc(NC4(C(N)=O)CCCC4)cc3)cc2)CCCC1
inactive: [16] 95 % of control | [17] 90 % of control | [18] 93 % of control

Cc1ccc(NC(=O)Oc2ccc(Cl)cc2C)c([N+](=O)[O-])c1
inactive: [13] 102 % of control | [14] 101 % of control | [15] 91 % of control

CCC(=O)OC1(c2ccccc2)CCN(CCC(=O)c2ccccc2)CC1
inactive: dose: 25.0 mg/kg/injection, schedule: Q04DX003 (ip), vehicle: Klucel (hydroxypropylcellulose) (HPC) 103 % of control | dose: 50.0 mg/kg/injection, schedule: Q04DX003 (ip), vehicle: Klucel (hydroxypropylcellulose) (HPC) 101 % of control | [13] 95 % of control and 98 % of control

CCNP(=S)(SCC)SCC
inactive: dose: 100.0 mg/kg/injection, schedule: Q04DX002 (ip), vehicle: saline with Tween-80 96 % of control | dose: 200.0 mg/kg/injection, schedule: Q04DX002 (ip), vehicle: saline with Tween-80 89 % of control | dose: 400.0 mg/kg/injection, schedule: Q04DX002 (ip), vehicle: saline with Tween-80 101 % of control

COc1ccc(-n2c(=O)c(N=Nc3ccccc3Cl)c(O)n(-c3ccccc3C)c2=S)cc1
inactive: [7] 97 % of control | [12] 93 % of control | [8] 104 % of control

COC(=O)c1cc(C)[nH]c2c(C)cc3nc4ccccc4c3c12
inactive: dose: 50.0 mg/kg/injection, schedule: Q01DX001 (ip), vehicle: saline 95 % of control | [19] 98 % of control | [20] 101 % of control | [21] 104 % of control

CCOC(=O)CCCc1ccccc1
inactive: [22] 107 % of control | [23] 90 % of control | [24] 93 % of control

COC(=O)C1C2CC(Br)C(Br)CC21 (stereo unspecified)
inactive: [22] 94 % of control | [23] 94 % of control | [24] 94 % of control

C=CCc1cc(Cl)ccc1OCC(=O)O
inactive: dose: 100.0 mg/kg/injection, schedule: Q01DX009 (ip), vehicle: gum acacia 97 % of control | dose: 200.0 mg/kg/injection, schedule: Q01DX009 (ip), vehicle: gum acacia 96 % of control

Clc1cc[n+](-c2ccncc2)cc1
inactive: [19] 103 % of control | [1] 100 % of control and 105 % of control | [2] 97 % of control and 103 % of control | dose: 100.0 mg/kg/injection, schedule: Q04DX003 (ip), vehicle: saline 95 % of control | [20] 90 % of control | [3] 105 % of control and 89 % of control | [4] 94 % of control and 89 % of control | dose: 200.0 mg/kg/injection, schedule: Q04DX003 (ip), vehicle: saline 101 % of control | [21] 97 % of control | [5] 97 % of control | [6] 100 % of control and 92 % of control | dose: 400.0 mg/kg/injection, schedule: Q04DX003 (ip), vehicle: saline 88 % of control

COc1ccc(/C=N/NC(=O)c2ccc(O)cc2)cc1
inactive: dose: 100.0 mg/kg/injection, schedule: Q01DX009 (ip), vehicle: Klucel (hydroxypropylcellulose) (HPC) 100 % of control | dose: 200.0 mg/kg/injection, schedule: Q01DX009 (ip), vehicle: Klucel (hydroxypropylcellulose) (HPC) 98 % of control | dose: 400.0 mg/kg/injection, schedule: Q01DX009 (ip), vehicle: Klucel (hydroxypropylcellulose) (HPC) 94 % of control

CCCCCCCC(=O)[O][Pb]([CH2]C)([CH2]C)[CH2]C
inactive: dose: 12.5 mg/kg/injection, schedule: Q04DX002 (ip), vehicle: DMSO 114 % of control

CCOc1ccc(Br)cc1C1N(Cc2ccc(OC)cc2)CCCN1Cc1ccc(OC)cc1
inactive: [17] 96 % of control | [18] 93 % of control | [25] 91 % of control

COc1cccc(OC)c1CCO
inactive: [16] 88 % of control | [17] 102 % of control | [18] 88 % of control | [25] 100 % of control

Cc1cccc(OC(F)(F)C(F)Cl)c1 (stereo unspecified)
inactive: [9] 94 % of control | [22] 93 % of control | [10] 92 % of control | [23] 93 % of control | [11] 100 % of control | [24] 95 % of control

CC1CCCC(NC(=O)NCCCl)C1 (stereo unspecified)
inactive: [13] 95 % of control | [14] 87 % of control | [15] 98 % of control

c1ccc(C2c3ccccc3C(c3ccccc3)(c3ccccc3)c3ccccc32)cc1
inactive: dose: 100.0 mg/kg/injection, schedule: Q01DX001 (ip), vehicle: other 91 % of control | dose: 200.0 mg/kg/injection, schedule: Q01DX001 (ip), vehicle: other 91 % of control | dose: 400.0 mg/kg/injection, schedule: Q01DX001 (ip), vehicle: other 91 % of control

c1ccc(C(CC(c2ccccc2)(c2ccccc2)c2ccccc2)(c2ccccc2)c2ccccc2)cc1
inactive: [19] 96 % of control | [20] 94 % of control | [21] 105 % of control
